The values below come from ChEMBL document CHEMBL5291721, “A preclinical secondary pharmacology resource illuminates target-adverse drug reaction associations of marketed drugs” (Nat Commun, 2023).

Experiment [1] deals with D(3) dopamine receptor (Homo sapiens, UniProt P35462).
In experiment [2] the target is 3',5'-cyclic-AMP phosphodiesterase 4D (Homo sapiens, UniProt Q08499). It is filed as functional.
The target of experiment [3] is Delta-type opioid receptor (Homo sapiens, UniProt P41143).
The target of experiment [4] is T1, Adenosine receptor A1 (Homo sapiens, UniProt P30542).
T1 sequence (P30542 whole entry): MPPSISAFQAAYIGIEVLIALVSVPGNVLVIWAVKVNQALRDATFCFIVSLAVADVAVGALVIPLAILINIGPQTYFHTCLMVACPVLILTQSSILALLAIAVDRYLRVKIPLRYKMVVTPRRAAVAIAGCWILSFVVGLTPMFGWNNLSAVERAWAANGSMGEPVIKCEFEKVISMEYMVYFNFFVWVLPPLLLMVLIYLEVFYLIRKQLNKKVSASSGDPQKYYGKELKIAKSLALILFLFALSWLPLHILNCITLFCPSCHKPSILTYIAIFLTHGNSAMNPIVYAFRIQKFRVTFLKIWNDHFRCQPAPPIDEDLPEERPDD

Experiment [5] deals with T2, Type-1 angiotensin II receptor (Homo sapiens, UniProt P30556).
T2 sequence (P30556 whole entry): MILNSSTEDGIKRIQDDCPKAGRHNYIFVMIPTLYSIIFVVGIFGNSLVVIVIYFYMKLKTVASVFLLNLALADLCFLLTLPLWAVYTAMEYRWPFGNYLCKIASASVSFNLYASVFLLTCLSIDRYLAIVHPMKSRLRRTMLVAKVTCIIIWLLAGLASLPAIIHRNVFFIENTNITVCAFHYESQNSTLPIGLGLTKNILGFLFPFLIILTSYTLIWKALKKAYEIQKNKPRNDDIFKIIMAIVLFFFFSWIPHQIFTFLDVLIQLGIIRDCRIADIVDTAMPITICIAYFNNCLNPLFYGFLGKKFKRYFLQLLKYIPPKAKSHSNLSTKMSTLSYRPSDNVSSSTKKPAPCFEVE

Experiment [6] deals with T3, Muscarinic acetylcholine receptor M2 (Homo sapiens, UniProt P08172).
T3 sequence (P08172 whole entry): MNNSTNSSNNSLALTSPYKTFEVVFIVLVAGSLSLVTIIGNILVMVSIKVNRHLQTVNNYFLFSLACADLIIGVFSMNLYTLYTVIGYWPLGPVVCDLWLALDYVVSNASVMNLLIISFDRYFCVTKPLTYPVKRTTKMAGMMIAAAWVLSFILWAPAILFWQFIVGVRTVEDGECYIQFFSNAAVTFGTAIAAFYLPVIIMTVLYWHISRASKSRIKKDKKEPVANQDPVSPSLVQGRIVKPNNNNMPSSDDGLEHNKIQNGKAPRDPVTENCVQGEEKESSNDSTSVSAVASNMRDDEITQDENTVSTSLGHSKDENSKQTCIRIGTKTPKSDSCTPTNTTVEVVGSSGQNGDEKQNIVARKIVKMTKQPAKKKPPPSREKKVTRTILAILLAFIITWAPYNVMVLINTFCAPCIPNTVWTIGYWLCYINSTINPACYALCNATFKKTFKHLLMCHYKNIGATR
It counts as functional, cell-based.

Experiment [7] addresses Muscarinic acetylcholine receptor M3 (Homo sapiens, UniProt P20309).
The target in experiment [8] is Melanocortin receptor 3 (Homo sapiens, UniProt P41968).
Chain of Melanocortin receptor 3 (P41968 whole entry): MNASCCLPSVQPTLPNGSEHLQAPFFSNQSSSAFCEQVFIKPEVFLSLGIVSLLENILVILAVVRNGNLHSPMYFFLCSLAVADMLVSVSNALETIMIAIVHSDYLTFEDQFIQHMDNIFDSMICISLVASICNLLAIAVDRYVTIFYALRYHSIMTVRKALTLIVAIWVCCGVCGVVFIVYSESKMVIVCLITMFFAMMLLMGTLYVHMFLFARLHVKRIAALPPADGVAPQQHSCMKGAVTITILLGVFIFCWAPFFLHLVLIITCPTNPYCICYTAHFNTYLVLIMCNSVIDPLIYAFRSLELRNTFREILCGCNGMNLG
Experiment [9] deals with D(1A) dopamine receptor (Homo sapiens, UniProt P21728). It counts as functional, cell-based.
Chain of D(1A) dopamine receptor (P21728 whole entry): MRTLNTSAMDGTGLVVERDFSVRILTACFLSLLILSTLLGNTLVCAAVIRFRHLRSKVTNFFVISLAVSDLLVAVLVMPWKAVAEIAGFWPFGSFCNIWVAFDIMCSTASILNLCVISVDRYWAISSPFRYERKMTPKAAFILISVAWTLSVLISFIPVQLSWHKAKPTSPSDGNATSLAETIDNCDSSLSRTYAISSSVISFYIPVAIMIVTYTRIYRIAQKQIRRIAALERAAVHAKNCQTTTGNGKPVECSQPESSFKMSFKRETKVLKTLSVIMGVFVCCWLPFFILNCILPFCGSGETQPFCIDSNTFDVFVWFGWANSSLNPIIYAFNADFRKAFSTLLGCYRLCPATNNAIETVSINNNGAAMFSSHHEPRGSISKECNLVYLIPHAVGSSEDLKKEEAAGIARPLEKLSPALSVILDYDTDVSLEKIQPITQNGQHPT
Experiment [10] concerns the target T4, Alpha-2A adrenergic receptor (Homo sapiens, UniProt P08913).
T4 sequence (P08913 whole entry): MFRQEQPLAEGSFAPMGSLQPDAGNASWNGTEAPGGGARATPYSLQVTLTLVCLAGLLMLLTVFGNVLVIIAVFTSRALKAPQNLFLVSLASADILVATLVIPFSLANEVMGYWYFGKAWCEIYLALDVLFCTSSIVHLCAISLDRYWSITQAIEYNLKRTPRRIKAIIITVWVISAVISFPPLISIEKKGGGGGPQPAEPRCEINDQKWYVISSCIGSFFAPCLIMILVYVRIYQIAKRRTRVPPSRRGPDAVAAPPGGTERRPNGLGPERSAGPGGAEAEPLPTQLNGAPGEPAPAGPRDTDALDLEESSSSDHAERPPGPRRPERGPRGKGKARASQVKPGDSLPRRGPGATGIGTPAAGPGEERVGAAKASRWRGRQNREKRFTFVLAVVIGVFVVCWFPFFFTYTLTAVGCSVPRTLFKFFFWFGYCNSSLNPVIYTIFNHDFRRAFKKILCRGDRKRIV
It counts as functional, cell-based.

Experiment [11] concerns the target Sodium-dependent noradrenaline transporter (Homo sapiens, UniProt P23975).
Experiment [12] concerns the target T5, Equilibrative nucleoside transporter 1 (Homo sapiens, UniProt Q99808).
T5 sequence (Q99808 whole entry): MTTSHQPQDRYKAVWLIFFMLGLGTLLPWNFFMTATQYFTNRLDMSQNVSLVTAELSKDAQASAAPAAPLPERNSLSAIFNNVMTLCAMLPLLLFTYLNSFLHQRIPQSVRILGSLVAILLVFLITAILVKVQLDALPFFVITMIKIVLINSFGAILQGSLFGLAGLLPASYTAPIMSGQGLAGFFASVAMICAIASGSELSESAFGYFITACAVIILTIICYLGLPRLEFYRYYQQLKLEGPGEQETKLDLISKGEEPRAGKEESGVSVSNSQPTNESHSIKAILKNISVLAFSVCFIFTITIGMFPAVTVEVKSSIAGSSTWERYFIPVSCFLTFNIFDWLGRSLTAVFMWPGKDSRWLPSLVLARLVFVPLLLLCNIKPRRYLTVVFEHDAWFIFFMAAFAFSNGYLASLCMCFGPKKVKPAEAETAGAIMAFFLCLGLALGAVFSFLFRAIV

Molecules are shown by their SMILES. A value given as a limit tells only on which side of the number the result lay.
Note: assay procedure not described here.

Chain of Muscarinic acetylcholine receptor M3 (P20309 whole entry): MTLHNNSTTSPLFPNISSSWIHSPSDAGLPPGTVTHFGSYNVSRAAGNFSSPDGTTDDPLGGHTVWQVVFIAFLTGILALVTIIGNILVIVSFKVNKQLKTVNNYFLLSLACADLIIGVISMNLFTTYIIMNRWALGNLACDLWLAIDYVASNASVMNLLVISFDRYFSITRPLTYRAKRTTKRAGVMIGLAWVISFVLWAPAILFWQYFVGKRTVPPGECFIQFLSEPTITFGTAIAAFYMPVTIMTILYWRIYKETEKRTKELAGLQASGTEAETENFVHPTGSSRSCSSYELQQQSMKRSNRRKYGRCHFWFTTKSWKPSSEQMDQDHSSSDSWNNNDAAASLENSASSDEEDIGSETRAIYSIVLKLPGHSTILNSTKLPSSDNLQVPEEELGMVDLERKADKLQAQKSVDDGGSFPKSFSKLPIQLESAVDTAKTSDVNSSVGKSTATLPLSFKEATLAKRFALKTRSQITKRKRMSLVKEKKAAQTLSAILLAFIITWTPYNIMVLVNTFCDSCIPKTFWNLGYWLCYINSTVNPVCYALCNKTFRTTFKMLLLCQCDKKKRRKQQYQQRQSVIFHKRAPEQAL
Chain of Delta-type opioid receptor (P41143 whole entry): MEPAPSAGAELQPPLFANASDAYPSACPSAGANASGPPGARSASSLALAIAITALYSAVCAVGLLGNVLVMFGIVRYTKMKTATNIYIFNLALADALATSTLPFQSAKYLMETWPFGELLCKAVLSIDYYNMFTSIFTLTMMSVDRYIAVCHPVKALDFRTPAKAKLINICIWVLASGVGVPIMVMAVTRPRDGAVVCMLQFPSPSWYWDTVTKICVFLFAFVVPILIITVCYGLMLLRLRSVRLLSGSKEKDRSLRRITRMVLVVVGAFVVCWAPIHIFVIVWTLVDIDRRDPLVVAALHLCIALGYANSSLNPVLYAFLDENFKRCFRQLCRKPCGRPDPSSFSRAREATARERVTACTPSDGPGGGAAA
Chain of Sodium-dependent noradrenaline transporter (P23975 whole entry): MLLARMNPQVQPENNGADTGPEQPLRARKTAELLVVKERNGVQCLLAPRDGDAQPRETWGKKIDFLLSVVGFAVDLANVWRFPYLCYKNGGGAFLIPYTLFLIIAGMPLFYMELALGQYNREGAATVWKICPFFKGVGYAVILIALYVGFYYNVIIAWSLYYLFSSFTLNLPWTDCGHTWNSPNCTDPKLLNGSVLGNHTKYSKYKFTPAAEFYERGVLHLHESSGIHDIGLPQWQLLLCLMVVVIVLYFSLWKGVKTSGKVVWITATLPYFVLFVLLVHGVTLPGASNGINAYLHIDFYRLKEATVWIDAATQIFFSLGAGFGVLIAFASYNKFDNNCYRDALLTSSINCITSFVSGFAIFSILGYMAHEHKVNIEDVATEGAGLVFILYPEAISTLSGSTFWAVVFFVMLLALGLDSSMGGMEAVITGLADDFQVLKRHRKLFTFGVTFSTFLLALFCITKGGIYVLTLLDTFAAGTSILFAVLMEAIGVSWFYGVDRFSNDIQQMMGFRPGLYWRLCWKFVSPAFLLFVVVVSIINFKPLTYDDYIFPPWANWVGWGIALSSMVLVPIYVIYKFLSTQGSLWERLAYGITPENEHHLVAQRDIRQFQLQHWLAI
Chain of 3',5'-cyclic-AMP phosphodiesterase 4D (Q08499 whole entry): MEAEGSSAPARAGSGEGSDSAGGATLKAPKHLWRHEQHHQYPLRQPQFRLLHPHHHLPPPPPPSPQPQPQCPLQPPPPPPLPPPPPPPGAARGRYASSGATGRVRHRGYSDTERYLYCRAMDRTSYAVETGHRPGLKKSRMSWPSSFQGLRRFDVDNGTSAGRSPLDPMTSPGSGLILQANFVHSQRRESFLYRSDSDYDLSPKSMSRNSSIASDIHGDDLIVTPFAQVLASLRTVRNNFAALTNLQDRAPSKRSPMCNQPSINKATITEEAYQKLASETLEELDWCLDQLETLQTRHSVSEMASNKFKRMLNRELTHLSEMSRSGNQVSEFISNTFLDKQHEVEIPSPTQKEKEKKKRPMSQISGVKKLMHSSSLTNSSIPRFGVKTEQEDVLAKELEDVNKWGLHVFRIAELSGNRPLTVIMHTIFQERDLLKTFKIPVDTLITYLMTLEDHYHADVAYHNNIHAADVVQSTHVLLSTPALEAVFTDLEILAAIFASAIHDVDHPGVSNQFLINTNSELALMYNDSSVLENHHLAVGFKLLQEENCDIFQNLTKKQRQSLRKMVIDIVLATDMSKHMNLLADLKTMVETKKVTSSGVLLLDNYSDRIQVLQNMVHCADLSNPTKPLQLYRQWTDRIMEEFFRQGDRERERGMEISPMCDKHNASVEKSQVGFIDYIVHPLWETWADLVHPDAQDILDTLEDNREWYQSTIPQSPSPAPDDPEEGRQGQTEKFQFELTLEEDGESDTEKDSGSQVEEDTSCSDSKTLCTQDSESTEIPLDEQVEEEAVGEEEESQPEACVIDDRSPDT
Chain of D(3) dopamine receptor (P35462 whole entry): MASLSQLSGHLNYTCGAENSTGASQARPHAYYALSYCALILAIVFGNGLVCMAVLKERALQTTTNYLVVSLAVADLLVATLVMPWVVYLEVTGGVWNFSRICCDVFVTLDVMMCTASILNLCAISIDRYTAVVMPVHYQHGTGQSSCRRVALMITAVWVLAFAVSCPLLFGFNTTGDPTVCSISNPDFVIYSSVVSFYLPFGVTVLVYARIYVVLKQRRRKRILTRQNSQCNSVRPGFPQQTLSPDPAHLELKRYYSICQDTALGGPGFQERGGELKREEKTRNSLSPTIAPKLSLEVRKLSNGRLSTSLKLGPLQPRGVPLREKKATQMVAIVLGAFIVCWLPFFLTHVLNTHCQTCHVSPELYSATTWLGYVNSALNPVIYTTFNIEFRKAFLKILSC

Take `CCCCN1C[C@H](O)[C@@H](O)[C@H](O)[C@H]1CO`: the AC50 in experiment [1], in experiment [2], in experiment [3], in experiment [4], in experiment [5] and in experiment [6] was above 30 µM in each case. Besides, the AC50 in experiment [7], in [8], in [9], in experiment [10], in [11] and in experiment [12] was above 30 µM in each case.

Turning to `CN(C)CCC=C1c2ccccc2C(C)(C)c2ccccc21`, the AC50 was 1.89 µM in experiment [1]; above 30 µM in experiment [2]; above 30 µM in experiment [3]; above 30 µM in [4]; above 30 µM in experiment [5]; 0.25 µM in experiment [6]. In addition, the AC50 in experiment [7] was 0.38 µM; in experiment [8], 21 µM; in experiment [9], above 30 µM; in experiment [10], above 30 µM; in experiment [11], 1.05 µM; in experiment [12], above 30 µM.

On to `Nc1nc(NC2CC2)c2ncn([C@H]3C=C[C@@H](CO)C3)c2n1` [ABACAVIR], for which the AC50 was above 30 µM in experiment [1]; 10 µM in experiment [2]; above 30 µM in experiment [3]; above 30 µM in experiment [4]; above 30 µM in [5]; above 30 µM in [6]. For the same compound, the AC50 in experiment [7], in experiment [8], in experiment [9], in experiment [10], in experiment [11] and in [12] was above 30 µM each time.

For the compound `COc1cc2nc(N(C)CCCNC(=O)C3CCCO3)nc(N)c2cc1OC` (configuration not stated) [ALFUZOSIN], the half-maximal activity concentration (AC50) in experiment [1] is 15 µM; in experiment [2], above 30 µM; in experiment [3] it was above 30 µM; in [4], above 30 µM; in experiment [5], above 30 µM; in experiment [6], above 30 µM. In addition, the AC50 in [7] is above 30 µM; in experiment [8] it was above 30 µM; in [9] it was above 30 µM; in [10], above 30 µM; in experiment [11] it was 13 µM; in [12] it was above 30 µM.

In the case of `CNC(=O)c1ccccc1Sc1ccc2c(/C=C/c3ccccn3)n[nH]c2c1` [AXITINIB], the half-maximal activity concentration (AC50) in [1] is above 30 µM; in experiment [2], above 30 µM; in experiment [3], above 30 µM; in experiment [4] it was above 30 µM; in experiment [5], above 30 µM; in experiment [6] it was 4.2 µM. The AC50 in experiment [7], in experiment [8], in experiment [9], in experiment [10], in [11] and in experiment [12] was above 30 µM each time.

On to `Cc1nc([N+](=O)[O-])cn1-c1ccc([N+](=O)[O-])cc1` [NITREFAZOLE], for which the AC50 in [1], in experiment [2], in experiment [3], in experiment [4], in experiment [5] and in experiment [6] was above 30 µM each time. Also, the AC50 in experiment [7], in experiment [8], in experiment [9] and in experiment [10] was above 30 µM in each case.

Take `Cc1c(C(=O)NN2CCCCC2)nn(-c2ccc(Cl)cc2Cl)c1-c1ccc(Cl)cc1` [RIMONABANT]: the AC50 is 15 µM in [1]; above 30 µM in experiment [2]; above 30 µM in [3]; above 30 µM in experiment [4]; 16.9 µM in experiment [5]; above 30 µM in experiment [7]. In addition, the AC50 in experiment [8] was 15.9 µM; in experiment [9], above 30 µM; in experiment [10], above 30 µM; in [11], 22 µM; in experiment [12] it was 20.1 µM.

In the case of `Clc1ccc2nsnc2c1NC1=NCCN1` [TIZANIDINE], the AC50 in [1] is above 10 µM; in experiment [2] it was above 30 µM; in experiment [3], above 30 µM; in [4], above 30 µM; in [5], above 30 µM; in experiment [6], above 30 µM. For the same compound, the AC50 was above 10 µM in experiment [7]; above 30 µM in experiment [8]; above 10 µM in [9]; above 10 µM in experiment [11]; above 30 µM in experiment [12].
